Measured values taken from PubChem BioAssay (NCI).
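Cells were grown in 96-well plates and exposed to each compound for 48 hours at five concentrations; endpoints were interpolated linearly between bracketing concentrations, or set to the highest concentration if not reached. At the TGI there is no net growth.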

Experiments:
Assay in all cases: inhibition of tumour cell growth, NCI panel, 48 h
[1] = system: UO-31 renal
[2] = system: NCI-H23 lung
[3] = system: HCT-15 colon
[4] = system: COLO 205 colon
[5] = system: KM12 colon
[6] = system: SNB-75 CNS
[7] = system: NCI/ADR-RES ovarian
[8] = system: LOX IMVI melanoma
[9] = system: OVCAR-8 ovarian
[10] = system: K-562 leukemia
[11] = system: MDA-MB-435
[12] = system: NCI-H460 lung
[13] = system: HCT-116 colon
[14] = system: U251 CNS
[15] = system: CAKI-1 renal
[16] = system: CCRF-CEM leukemia
[17] = system: HOP-62 NSCLC
[18] = system: OVCAR-5 ovarian
[19] = system: A549 NSCLC
[20] = system: HOP-92 NSCLC
[21] = system: SNB-19 CNS
[22] = system: RPMI-8226 leukemia
[23] = system: HL-60(TB) leukemia
[24] = system: NCI-H522 lung
[25] = system: IGROV1 ovarian
[26] = system: TK-10 renal
[27] = system: SW-620 colon
[28] = system: UACC-62 melanoma
[29] = system: DU-145 prostate
[30] = system: MOLT-4 leukemia
[31] = system: SK-MEL-5 melanoma
[32] = system: SK-MEL-28 melanoma
[33] = system: ACHN renal
[34] = system: HT29 colon
[35] = system: EKVX NSCLC
[36] = system: M14 melanoma
[37] = system: HS 578T breast
[38] = system: T-47D breast
[39] = system: UACC-257 melanoma
[40] = system: 786-0 renal
[41] = system: BT-549 breast
[42] = system: SF-295 CNS
[43] = system: MDA-N
[44] = system: NCI-H226 lung
[45] = system: MALME-3M melanoma
[46] = system: OVCAR-3 ovarian
[47] = system: SK-MEL-2 melanoma
[48] = system: SF-268 CNS
[49] = system: SK-OV-3 ovarian
[50] = system: SN12C renal
[51] = system: SF-539 CNS
[52] = system: PC-3 prostate
[53] = system: MDA-MB-231 breast
[54] = system: A498 renal
[55] = system: RXF 393 renal
[56] = system: SR leukemia
[57] = system: OVCAR-4 ovarian

NNC1=N/C(=C\c2ccccc2O)C(=O)N1
TGI [1]: > 100 µM | TGI [2]: > 100 µM | TGI [3]: > 100 µM | TGI [4]: 77.3 µM | TGI [5]: > 100 µM | TGI [6]: > 100 µM | TGI [7]: > 100 µM | TGI [8]: > 100 µM | TGI [9]: > 100 µM | TGI [10]: > 100 µM | TGI [11]: > 100 µM | TGI [12]: > 100 µM | TGI [13]: > 100 µM | TGI [14]: > 100 µM | TGI [15]: > 100 µM | TGI [16]: 51.9 µM | TGI [17]: > 100 µM | TGI [18]: > 100 µM | TGI [19]: > 100 µM | TGI [20]: > 100 µM | TGI [21]: > 100 µM | TGI [22]: > 100 µM | TGI [23]: 49.6 µM | TGI [24]: > 100 µM | TGI [25]: > 100 µM | TGI [26]: > 100 µM | TGI [27]: > 100 µM | TGI [28]: > 100 µM | TGI [29]: > 100 µM | TGI [30]: > 100 µM | TGI [31]: > 100 µM | TGI [32]: > 100 µM | TGI [33]: > 100 µM | TGI [34]: > 100 µM | TGI [35]: > 100 µM | TGI [36]: > 100 µM | TGI [37]: > 100 µM | TGI [38]: 89.4 µM | TGI [39]: > 100 µM | TGI [40]: > 100 µM | TGI [41]: > 100 µM | TGI [42]: > 100 µM | TGI [43]: > 100 µM | TGI [44]: > 100 µM | TGI [45]: > 100 µM | TGI [46]: > 100 µM | TGI [47]: > 100 µM | TGI [48]: > 100 µM | TGI [49]: > 100 µM | TGI [50]: > 100 µM | TGI [51]: > 100 µM | TGI [52]: > 100 µM | TGI [53]: > 100 µM | TGI [54]: > 100 µM | TGI [55]: > 100 µM

COC(=O)CCCc1c(-c2[nH]c3ccccc3c2CCCC(=O)OC)[nH]c2ccccc12
TGI [1]: > 100 µM | TGI [2]: > 100 µM | TGI [3]: > 100 µM | TGI [4]: > 100 µM | TGI [5]: > 100 µM | TGI [6]: > 100 µM | TGI [7]: > 100 µM | TGI [8]: > 100 µM | TGI [9]: > 100 µM | TGI [10]: > 100 µM | TGI [11]: > 100 µM | TGI [12]: > 100 µM | TGI [13]: > 100 µM | TGI [14]: > 100 µM | TGI [15]: > 100 µM | TGI [16]: > 100 µM | TGI [17]: > 100 µM | TGI [18]: > 100 µM | TGI [19]: > 100 µM | TGI [20]: > 100 µM | TGI [21]: > 100 µM | TGI [22]: > 100 µM | TGI [23]: > 100 µM | TGI [24]: > 100 µM | TGI [25]: > 100 µM | TGI [26]: > 100 µM | TGI [27]: > 100 µM | TGI [28]: > 100 µM | TGI [29]: > 100 µM | TGI [30]: > 100 µM | TGI [31]: > 100 µM | TGI [32]: > 100 µM | TGI [33]: > 100 µM | TGI [34]: > 100 µM | TGI [35]: > 100 µM | TGI [36]: > 100 µM | TGI [37]: > 100 µM | TGI [38]: > 100 µM | TGI [39]: > 100 µM | TGI [40]: > 100 µM | TGI [41]: > 100 µM | TGI [42]: > 100 µM | TGI [43]: > 100 µM | TGI [44]: > 100 µM | TGI [45]: > 100 µM | TGI [46]: > 100 µM | TGI [47]: > 100 µM | TGI [48]: > 100 µM | TGI [49]: > 100 µM | TGI [50]: > 100 µM | TGI [51]: > 100 µM | TGI [52]: > 100 µM | TGI [53]: > 100 µM | TGI [54]: > 100 µM | TGI [55]: > 100 µM

COc1ccc(-c2cc(-c3cc(F)c(Cl)cc3Cl)[nH]n2)cc1OC
TGI [56]: 43.8 µM | TGI [1]: > 100 µM | TGI [2]: > 100 µM | TGI [3]: > 100 µM | TGI [4]: 47 µM | TGI [5]: > 100 µM | TGI [6]: 61.5 µM | TGI [7]: > 100 µM | TGI [8]: 42.1 µM | TGI [9]: > 100 µM | TGI [10]: > 100 µM | TGI [11]: > 100 µM | TGI [12]: > 100 µM | TGI [13]: 83.6 µM | TGI [14]: > 100 µM | TGI [15]: > 100 µM | TGI [16]: 75.9 µM | TGI [17]: > 100 µM | TGI [18]: > 100 µM | TGI [19]: > 100 µM | TGI [20]: 67.8 µM | TGI [21]: > 100 µM | TGI [22]: 41 µM | TGI [23]: 55 µM | TGI [24]: 81.8 µM | TGI [25]: > 100 µM | TGI [26]: > 100 µM | TGI [27]: 74.2 µM | TGI [57]: > 100 µM | TGI [29]: > 100 µM | TGI [30]: > 100 µM | TGI [31]: 47.3 µM | TGI [32]: > 100 µM | TGI [33]: 30.4 µM | TGI [34]: 76.6 µM | TGI [35]: > 100 µM | TGI [36]: > 100 µM | TGI [37]: > 100 µM | TGI [38]: > 100 µM | TGI [39]: > 100 µM | TGI [40]: 42.4 µM | TGI [41]: > 100 µM | TGI [42]: 73.7 µM | TGI [43]: > 100 µM | TGI [44]: 52.5 µM | TGI [45]: > 100 µM | TGI [46]: 41.3 µM | TGI [47]: > 100 µM | TGI [48]: > 100 µM | TGI [49]: > 100 µM | TGI [50]: 62.9 µM | TGI [51]: 37.3 µM | TGI [52]: 79.1 µM | TGI [53]: > 100 µM | TGI [55]: 43.8 µM
